The source of these data is patent publication US20140378307A1, “AROMATIC PHOSPHATE ESTERS AS AGROCHEMICAL FORMULATION COMPONENT” (SYNGENTA LIMITED, priority 2011, published 2014).

What all share (assay type): in vivo
The subject of experiment [1] is Abutilon theophrasti (ABUTH), Chenopodium album (CHEAL), Digitaria sanguinalis (DIGSA), Setaria viridis (SETVI). Put plainly: Glasshouse weed kill, nicosulfuron with Phosflex 31L and comparison adjuvants. Conditions: nicosulfuron 30 or 60 g/ha, 200 l/ha; Atplus 411F 0.5% v/v, other adjuvants 0.2% v/v; leaf area killed; mean over two rates, three replicates, four weed species, 14 and 21 days. The text has this:
(§1) Unless otherwise stated within a specific Example, all aromatic phosphate esters employed were initially formulated as 20% w′w emulsions containing 2% w/w Gohsenol®GLO3 (a polyvinyl alcohol, Nippon Gohsei, Hull, UK) and 2% Pluronic® PE10500 (an ethylene glycol-propylene glycol block copolymer, BASF Aktiengesellschaft, Ludwighsafen, Germany) as surfactants.
The efficacy of the aromatic phosphate ester Phosflex®31L (isopropylated triphenyl phosphate) as an adjuvant for the herbicide nicosulfuron was tested against four weed species in the glasshouse and compared to the well-known tank mix adjuvant Atplus®411F as well as to a aromatic ester lacking the a phosphate moiety, butylene glycol benzoate. An agrochemical composition was prepared containing 0.5% v/v of the adjuvant Atplus 411F with the test compound in a track sprayer, and was applied at a volume of 200 litres per hectare. The other adjuvants were used at a rate of 0.2% v/v. Nicosulfuron was applied at a rate of either 30 or 60 grams per hectare. Nicosulfuron was applied to weeds which had been grown to the 1.3 or 1.4 leaf stage. […]
(§2) Each spray test was replicated three times. The efficacy of the herbicide was assessed visually and expressed as a percentage of the leaf area killed. Samples were assessed at time periods of 14 and 21 days following application. […]

The test system of experiment [2] is Chenopodium album (CHEAL), Abutilon theophrasti (ABUTH), Setaria viridis (SETVI), Digitaria sanguinalis (DIGSA). Put plainly: Glasshouse weed kill, nicosulfuron with tricresyl phosphate, Phosflex 362, triphenyl phosphate. To be noted: four weed species; for efficacy as adjuvant for nicosulfuron (in words): adjuvant 0.2% v/v, conclusion from Table 7.
Text: as §1
The efficacy of the aromatic phosphate esters tricresyl phosphate, Phosflex®362 (2-ethylhexyl diphenyl phosphate) and triphenyl phosphate were tested in a glasshouse against four weed species using the herbicide nicosulfuron. An agrochemical composition was prepared containing 0.5% v/v of the adjuvant Atplus® 411F in a track sprayer, and was applied at a volume of 200 litres per hectare. The other adjuvants were tested at a arte of 0.2% v/v. Nicosulfuron was applied at a rate of either 30 or 60 grams of pesticide per hectare to weeds which had been grown to the 1.3 or 1.4 leaf stage. The weed species were Chenopodium album (CHEAL), Abutilon theophrasti (ABUTH), Setaria viridis (SETVI) and Digitaria sanguinalis (DIGSA).
Each spray test was replicated three times. The efficacy of the herbicide was assessed visually and expressed as a percentage of the leaf area killed. Samples were assessed at time periods of 14 and 21 days following application. The results shown in Table 7 below are mean averages over the two rates of nicosulfuron, three replicates, four weed species and the two assessment timings, and are compared to the efficacy of nicosulfuron in the absence of adjuvant and nicosulfuron in the presence of the known tank mix adjuvant Atplus®411F.

Experiment [3] has as its system Alopecurus myosuroides (ALOMY), Avena fatua (AVEFA), Lolium perenne (LOLPE), Setaria viridis (SETVI). Put plainly: Glasshouse weed kill, pinoxaden with tricresyl phosphate, Phosflex 362, triphenyl phosphate. To be noted: pinoxaden 7.5 or 15 g/ha, 200 l/ha; TEHP 0.5% v/v, other adjuvants 0.2% v/v; leaf area killed; mean over two rates, three replicates, four weeds, 14 and 21 days.
Text: as §1
The efficacy of the aromatic phosphate esters tricresyl phosphate, Phosflex®362 (2-ethylhexyl diphenyl phosphate) and triphenyl phosphate were tested in a glasshouse against four weed species using the herbicide pinoxaden. An agrochemical composition was prepared containing 0.5% v/v of the adjuvant TEHP in a track sprayer and was applied at a volume of 200 litres per hectare. The other adjuvants were tested at a rate of 0.2% v/v. Pinoxaden was applied at either 7.5 or 15 grams per hectare on each of the weed species. The weed species and their growth stage at spraying were Alopecurus myosuroides (ALOMY; growth stage 13), Avena fatua (AVEFA; growth stage 12); Lolium perenne (LOLPE; growth stage 13), Setaria viridis (SETVI; growth stage 14).
as §2

The test system is the same in experiment [4]. Put plainly: Glasshouse weed kill, pinoxaden with Phosflex 31L and comparison adjuvants. Conditions: pinoxaden 7.5 or 15 g/ha, 200 l/ha; TEHP 0.5% v/v, other adjuvants 0.2% v/v; leaf area killed; mean over two rates, three replicates, four weed species, 14 and 21 days. The method, then:
as §1
The efficacy of the aromatic phosphate ester Phosflex®31L (isopropylated triphenyl phosphate) as an adjuvant was tested in a glasshouse against four weed species using the herbicide pinoxaden. An agrochemical composition was prepared containing 0.2% v/v of the adjuvant in a track sprayer and was applied at a volume of 200 litres per hectare. Pinoxaden was applied at either 7.5 or 15 grams of pesticide per hectare on each of the weed species. The adjuvant TEHP was tested at a different rate from the other adjuvants, it being used at 0.5% v/v. The weed species and their growth stage at spraying were Alopecurus myosuroides (ALOMY; growth stage 13), Avena fatua (AVEFA; growth stage 12); Lolium perenne (LOLPE; growth stage 13), Setaria viridis (SETVI; growth stage 14).
as §2

The test system of experiment [5] is Chenopodium album (CHEAL), Abutilon theophrasti (ABUTH), Setaria viridis (SETVI), Xanthium strumarium (XANST). The experiment in a line: Glasshouse weed kill, fomesafen with tricresyl phosphate, Phosflex 362, triphenyl phosphate. Conditions: fomesafen 60 or 120 g/ha, 200 l/ha; Turbocharge 0.5% v/v, other adjuvants 0.2% v/v; leaf area killed; mean over two rates, three replicates, four weeds, 7, 14 and 21 days.
Text: as §1
The efficacy of the aromatic phosphate esters tricresyl phosphate, Phosflex®362 (2-ethylhexyl diphenyl phosphate) and triphenyl phosphate as adjuvants were tested in a glasshouse against four weed species using the herbicide fomesafen. An agrochemical composition was prepared containing 0.5% v/v of the adjuvant Turbocharge® in a track sprayer and was applied at a volume of 200 litres per hectare. The other adjuvants were tested at a rate of 0.2% v/v. Fomesafen was applied at a rate of either 60 or 120 grams per hectare on weeds which had been grown to the 1.3 or 1.4 leaf stage. […]
(§3) Each spray test was replicated three times. The efficacy of the herbicide was assessed visually and expressed as a percentage of the leaf area killed. Samples were assessed at time periods of 7, 14 and 21 days following application. […]

Experiment [6] shares this test system. Put plainly: Glasshouse weed kill, fomesafen with Phosflex 31L and comparison adjuvants.
Text: as §1
The efficacy of the aromatic phosphate ester Phosflex®31L (isopropylated triphenyl phosphate) as an adjuvant for the herbicide fomesafen was tested against four weed species in the glasshouse and compared to the well-known tank mix adjuvant Turbocharge® as well as to a aromatic ester lacking the a phosphate moiety, butylene glycol benzoate. An agrochemical composition was prepared containing 0.5% v/v of the adjuvant Turbocharge with the test compound in a track sprayer, and was applied at a volume of 200 litres per hectare. Fomesafen was applied at a rate of either 60 or 120 grams per hectare. The other adjuvants were applied at a rate of 0.2% v/v. Fomesafen was applied to weeds which had been grown to the 1.3 or 1.4 leaf stage. […]
as §3

For experiment [7], the system named is Polygonum convolvulus (POLCO), Brachiaria platyphylla (BRAPL), Digitaria sanguinalis (DIGSA), Amaranthus tuberculatus (AMATU). Put plainly: Glasshouse weed kill, mesotrione with tricresyl phosphate, Phosflex 362, triphenyl phosphate. To be noted: mesotrione 60 or 120 g/ha, 200 l/ha; Turbocharge 0.5% v/v, other adjuvants 0.2% v/v; leaf area killed; mean over two rates, three replicates, four weeds, 7, 14 and 21 days.

The test system of experiment [8] is Polygonum convolvulus (POLCO), Brachiaria platyphylla (BRAPL), Digitaria sanguinalis (DIGSA), Ambrosia artemisiifolia (AMBAR). The experiment in a line: Glasshouse weed kill, mesotrione with Phosflex 31L and comparison adjuvants. Conditions: mesotrione 30 or 60 g/ha, 200 l/ha; Tween 20 0.5% v/v, other adjuvants 0.2% v/v; mean over two rates, three replicates, four weed species, three assessment timings.
Text: as §1
The efficacy of the aromatic phosphate ester Phosflex®31L (isopropylated triphenyl phosphate) as an adjuvant for the herbicide mesotrione was tested against four weed species in the glasshouse and compared to the known adjuvant Tween®20 as well as to a aromatic ester lacking the a phosphate moiety, butylene glycol benzoate. An agrochemical composition was prepared containing 0.5% v/v of the adjuvant Tween®20 with the test compound in a track sprayer, and was applied at a volume of 200 litres per hectare. The other adjuvants were tested at a rate of 0.2% v/v. Mesotrione was applied at a rate of either 30 or 60 grams per hectare to weeds which had been grown to the 1.3 or 1.4 leaf stage. The weed species were Polygonum convolvulus (POLCO), Brachiaria platyphylla (BRAPL), Digitaria sanguinalis (DIGSA) and Ambrosia artemisiifolia (AMBAR) […]

Experiment [9] relates to Septoria tritici. To be noted: S. tritici on wheat, adjuvant 0.2% v/v, conclusion from Table 2.
Experiment [10] concerns Septoria tritici. Conditions: S. tritici on wheat, adjuvant 0.2% v/v, conclusion from Table 1.

For the compound `COc1cc(OC)nc(NC(=O)NS(=O)(=O)c2ncccc2C(=O)N(C)C)n1` [Nicosulfuron, nicosulfuron], the “Mean percentage kill, Mean across species” value (“Mean percentage kill” for short) worked out at 74.9 B % in [1]; 42.5% in [2] (nicosulfuron 30 or 60 g/ha, 200 l/ha, Atplus 411F 0.5% v/v, other adjuvants 0.2% v/v, leaf area killed, mean over two rates, three replicates, 14 and 21 days).
As for `CCc1cc(C)cc(CC)c1-c1c(OC(=O)C(C)(C)C)n2n(c1=O)CCOCC2` [Pinoxaden, pinoxaden], the “Mean percentage kill” value is listed as 16.0 C % in [3] and 17.4 D % in experiment [4].
For `CS(=O)(=O)NC(=O)c1cc(Oc2ccc(C(F)(F)F)cc2Cl)ccc1[N+](=O)[O-]` [Fomesafen, fomesafen], the “Mean percentage kill” value is reported as 14.3% in [5]; 37.7 C % in experiment [6] (fomesafen 60 or 120 g/ha, 200 l/ha, Turbocharge 0.5% v/v, other adjuvants 0.2% v/v, leaf area killed, mean over two rates, three replicates, four weed species, 7, 14 and 21 days).
As for `O=C(OCCCCO)c1ccccc1` [the ester lacking the phosphate moiety, butylene glycol benzoate], in [6] (four weed species, adjuvant 0.2% v/v, conclusion from Table 4), the “efficacy as adjuvant for fomesafen (in words)” value was “is not”.
As to “tricresyl phosphate [tricresylphosphate]”, the “efficacy as adjuvant for nicosulfuron (in words)” value in experiment [2] was “performing particularly well”.
Take `CS(=O)(=O)c1ccc(C(=O)C2C(=O)CCCC2=O)c([N+](=O)[O-])c1` [Mesotrione, mesotrione]: the figures for the “Mean percentage kill” value in [7] and in [8] were 34.0 A % and 47.2 B %, respectively.
Regarding `CCCCC(CC)COP(=O)(Oc1ccccc1)Oc1ccccc1` (stereo not shown) [Phosflex®362, 2-ethylhexyl diphenyl phosphate], the “efficacy as adjuvant for cyproconazole (in words)” value in experiment [9] is recorded as “performed best as an adjuvant out of the compounds tested”. For the same compound, in experiment [2], the “efficacy as adjuvant for nicosulfuron (in words)” value is listed as “performing particularly well”. In addition, the “efficacy as adjuvant for isopyrazam (in words)” value in [10] was “more efficacious as an adjuvant than any of the other compounds tested”.
